Test results from patent EP3355943B1, “METHODS AND SYSTEMS FOR TREATING MEDICAL DEVICES AND FLUIDS” (Ethicon, Inc., priority 2015, dated 2017).
Marks after values point to notes of the source that are not given here.

Experiment: Kinetics of removal of LPS with different agitation techniques in presence of stearate salts
Assay type: biochemical
Design: Endotoxin Detected: unit not given here
Details: for Endotoxin Detected (EU) / Endotoxin Detected: 5mL SRW, baseline 1,502; for Percent (%) Removed: vs SRW Baseline; for Endotoxin Detected: Table 18
Protocol: 5mL of SRW was added to each of the tubes. Each solution was tested for endotoxin removal after agitation based on with sonication, vortexing, or test tube rolling. Sonication samples were sonicated at each indicated time interval for 30 seconds at a magnitude of 30. Vortex samples were vortexed at each indicated time interval for 30 seconds at 2500 RPM. Rolling samples were constantly rolling at 10 rpm. The samples were tested on the MCS for endotoxin at 1 minute, 20 minutes, 40 minutes, 60 minutes, and 80 minutes.

Molecule	Percent (%) Removed (Rolling, 1 minute)	Percent (%) Removed (Rolling, 20 minutes)	Percent (%) Removed (Rolling, 40 minutes)	Percent (%) Removed (Rolling, 60 minutes)	Percent (%) Removed (Rolling, 80 minutes)	Percent (%) Removed (Sonication, 1 minute)	Percent (%) Removed (Sonication, 20 minutes)	Percent (%) Removed (Sonication, 40 minutes)	Percent (%) Removed (Sonication, 60 minutes)	Percent (%) Removed (Sonication, 80 minutes)	Percent (%) Removed (Vortexing, 1 minute)	Percent (%) Removed (Vortexing, 20 minutes)	Percent (%) Removed (Vortexing, 40 minutes)	Percent (%) Removed (Vortexing, 60 minutes)	Percent (%) Removed (Vortexing, 80 minutes)	further results
CCCCCCCCCCCCCCCCCC(=O)O [Magnesium Stearate]	29.4%	25.4%	29.4%	25.4%	20.8%	50.5%	52.3%	45.1%	41.1%	53.2%	41.1%	33.4%	40%	36.2%	29.4%	Endotoxin Detected (EU) (Rolling, 1 minute): 1,060 EU; Endotoxin Detected (EU) (Rolling, 20 minutes): 1,120 EU; Endotoxin Detected (EU) (Rolling, 40 minutes): 1,060 EU; Endotoxin Detected (EU) (Rolling, 60 minutes): 1,120 EU; Endotoxin Detected (EU) (Rolling, 80 minutes): 1,190 EU; Endotoxin Detected (EU) (Sonication, 1 minute): 743 EU; Endotoxin Detected (EU) (Sonication, 20 minutes): 716 EU; Endotoxin Detected (EU) (Sonication, 40 minutes): 824 EU; Endotoxin Detected (EU) (Sonication, 60 minutes): 884 EU; Endotoxin Detected (EU) (Sonication, 80 minutes): 703 EU; Endotoxin Detected (EU) (Vortexing, 1 minute): 884 EU; Endotoxin Detected (EU) (Vortexing, 20 minutes): 1,000 EU; Endotoxin Detected (EU) (Vortexing, 40 minutes): 901 EU; Endotoxin Detected (EU) (Vortexing, 60 minutes): 958 EU; Endotoxin Detected (EU) (Vortexing, 80 minutes): 1,060 EU
Aluminum Monostearate	85.3%	16.1%	17.4%	55.3%	18.8%	58.3%	73%	75%	71.1%	80.6%	45.6%	43.5%	47.7%	46.7%	49.6%	Endotoxin Detected (Rolling, 1 minute): 221*; Endotoxin Detected (Rolling, 20 minutes): 1,260; Endotoxin Detected (Rolling, 40 minutes): 1,240; Endotoxin Detected (Rolling, 60 minutes): 672; Endotoxin Detected (Rolling, 80 minutes): 1,220; Endotoxin Detected (Sonication, 1 minute): 626; Endotoxin Detected (Sonication, 20 minutes): 406; Endotoxin Detected (Sonication, 40 minutes): 375; Endotoxin Detected (Sonication, 60 minutes): 434; Endotoxin Detected (Sonication, 80 minutes): 291; Endotoxin Detected (Vortexing, 1 minute): 817; Endotoxin Detected (Vortexing, 20 minutes): 849; Endotoxin Detected (Vortexing, 40 minutes): 786; Endotoxin Detected (Vortexing, 60 minutes): 801; Endotoxin Detected (Vortexing, 80 minutes): 757
